Measured values reported in patent US20060069132A1, “Azolecarboxamide herbicides” (priority 2004, published 2006).
Like-named read-outs stand apart in the source and are kept apart here.

What was measured:
yellow nutsedge = assay: Test C pre-/postemergence herbicide test; format: in vivo, Cyperus esculentus; conditions: for Plant response rating (0 = no effect, 100 = complete control), Nutsedge, Yellow / Plant response rating, Nutsedge, Yellow: preemergence
Method in brief: (§1)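 Pre/post spray; non-phytotoxic solvent + surfactant. Post-timing 1–4 leaves, 2–18 cm. Read-out: visual % control vs untreated, day 12–14, greenhouse.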

velvetleaf = assay: Test A pre-/postemergence herbicide test; format: in vivo, Abutilon theophrasti; conditions: for pest or weed control at 500 g/ha / pest or weed control at 2000 g/ha: Abutilon theophrasti, 240 h
Method in brief: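 Greenhouse injury scoring (0–100, complete control = 100) at approximately ten days follows simultaneous pre- and postemergence application. Soil received a directed spray after seeding; seedlings of 2–10 cm at the one- to two-leaf stage were sprayed to runoff.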

woolly cupgrass = assay: Test C pre-/postemergence herbicide test; format: in vivo, Eriochloa villosa; conditions: for Plant response rating (0 = no effect, 100 = complete control), Cupgrass, Woolly / Plant response rating, Cupgrass, Woolly: preemergence; for pest or weed control at 125 g/ha / pest or weed control at 250 g/ha: Eriochloa villosa, pre-emergence, 312 h, read-out: Plant response rating, Cupgrass, Woolly; for Cupgrass, Woolly plant response rating: Preemergence, scale 0 to 100, 0 no effect, 100 complete control
Method in brief: as §1

goosegrass = assay: Test C pre-/postemergence herbicide test; format: in vivo, Eleusine indica; conditions: for Plant response rating (0 = no effect, 100 = complete control), Goosegrass / Plant response rating, Goosegrass: preemergence; for pest or weed control at 125 g/ha / pest or weed control at 250 g/ha: Eleusine indica, pre-emergence, 312 h, read-out: Plant response rating, Goosegrass; for Goosegrass plant response rating: Preemergence, scale 0 to 100, 0 no effect, 100 complete control
Method in brief: as §1

rice = assay: Test B pre-/postemergence herbicide test; format: in vivo, Oryza sativa; conditions: for Rice plant response rating: Preemergence, scale 0 to 100
Method in brief: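 Seeds were planted and treated preemergence with compounds formulated in a non-phytotoxic solvent mixture containing surfactant, while plants at the 1- to 4-leaf stage (2 to 18 cm) received postemergence sprays. Flooded paddy plants were grown to the 2-leaf stage. After 13 to 15 days in a greenhouse, injury was visually rated 0–100 against untreated controls.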

barnyardgrass = assay: Test B flooded paddy test; format: in vivo, Echinochloa crus-galli; conditions: 1000 g ai/ha, visual rating, scale 0 to 100 (0 no effect, 100 complete control), 13 to 15 days; for pest or weed control at 1000 g/ha: Echinochloa crus-galli, 336 h, read-out: Barnyardgrass plant response rating
Method in brief: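 Greenhouse test; postemergence application to plants at 1–4 leaves (2–18 cm); paddy species at 2 leaves; evaluated visually vs controls at 13–15 days; scale 0–100 (100 = complete control).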

common ragweed = assay: Test C pre-/postemergence herbicide test; format: in vivo, Ambrosia elatior; design: key to Plant response rating, Ragweed: 0 = no effect, 100 = complete control; conditions: for Plant response rating (0 = no effect, 100 = complete control), Ragweed / Plant response rating, Ragweed: preemergence; for Ragweed plant response rating: Preemergence, scale 0 to 100, 0 no effect, 100 complete control
Method in brief: as §1

[1] = system: smallflower umbrella sedge; assay: Test C flooded paddy test; format: in vivo, Cyperus difformis; conditions: Cyperus difformis; for pest or weed control at 62 g/ha: 62 g ai/ha; for pest or weed control at 125 g/ha: 125 g ai/ha; for pest or weed control at 250 g/ha: 250 g ai/ha; for pest or weed control at 500 g/ha: 500 g ai/ha
cocklebur = assay: Test B pre-/postemergence herbicide test; format: in vivo, Xanthium strumarium; conditions: for pest or weed control at 125 g/ha / pest or weed control at 500 g/ha: Xanthium strumarium
Method in brief: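 Greenhouse pot assay with simultaneous preemergence (treated seed) and postemergence (2–18 cm seedlings) applications of surfactant-containing, non-phytotoxic solvent formulations. Response scored visually 13–15 days later on a 0–100 scale, 100 meaning complete control.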

[2] = Cyperus, pre-emergence, 250 g ai/ha, scale 0 to 100 (0 no effect, 100 complete control), visual, 12 to 14 days, read-out: Plant response rating, Nutsedge, Yellow
[3] = post-emergence, Postemergence, 2000 g ai/ha, 0 to 100 scale, 0 no effect, 100 complete control, read-out: Plant response rating, Velvetleaf
[4] = pre-emergence, Preemergence, 500 g ai/ha, visual rating, 0 to 100 scale (0 no effect, 100 complete control), read-out: Velvetleaf plant response rating
[5] = pre-emergence, Preemergence, 2000 g ai/ha, 0 to 100 scale, 0 no effect, 100 complete control, read-out: Velvetleaf plant response rating
[6] = 250 g ai/ha, scale 0 to 100 (0 no effect, 100 complete control), visual, 12 to 14 days
[7] = Ambrosia artemisiifolia, pre-emergence, 250 g ai/ha, scale 0 to 100 (0 no effect, 100 complete control), visual, 12 to 14 days, read-out: Plant response rating, Ragweed
[8] = scale 0 to 100 (0 no effect, 100 complete control), read-out: Sedge, Umbrella plant response rating
[9] = scale of 0 to 100, 0 is no effect, 100 is complete control, read-out: Sedge, Umbrella plant response rating
[10] = visual rating after 12 to 14 days, scale 0 to 100 (0 no effect, 100 complete control), read-out: Plant response rating, Sedge, Umbrella
[11] = post-emergence, Postemergence, 500 g ai/ha, visual rating after 13 to 15 days, scale 0 (no effect) to 100 (complete control), read-out: Plant response rating, Cocklebur
[12] = pre-emergence, Preemergence, 500 g ai/ha, scale 0 to 100, read-out: Cocklebur plant response rating
[13] = 125 g ai/ha, scale 0 (no effect) to 100 (complete control), visual, 12 to 14 days
[14] = 500 g ai/ha, scale 0 to 100 (0 no effect, 100 complete control), visual, 12 to 14 days
[15] = 125 g ai/ha, 0 = no effect, 100 = complete control, preemergence
[16] = 500 g ai/ha, visual rating, 0 = no effect, 100 = complete control, preemergence

Compound: CCNC(=O)c1ccc(F)c(NC(=O)c2cc(C(C)(C)C)nn2CC)c1 [Compound 2, 3-(1,1-dimethylethyl)-1-ethyl-N-[5-[(ethylamino)carbonyl]-2-fluorophenyl]-1H-pyrazole-5-carboxamide]
- Plant response rating (0 = no effect, 100 = complete control), Nutsedge, Yellow (yellow nutsedge; 62 g ai/ha): 30
- pest or weed control at 250 g/ha (yellow nutsedge; [2]): 90%
- pest or weed control at 500 g/ha (velvetleaf; post-emergence, Postemergence, 500 g ai/ha, 0 to 100 scale, 0 no effect, 100 complete control, read-out: Plant response rating, Velvetleaf): 40%
- pest or weed control at 2000 g/ha (velvetleaf; [3]): 75%
- pest or weed control at 500 g/ha (velvetleaf; [4]): 100%
- pest or weed control at 2000 g/ha (velvetleaf; [5]): 100%
- Plant response rating (0 = no effect, 100 = complete control), Cupgrass, Woolly (woolly cupgrass; 62 g ai/ha): 40
- pest or weed control at 125 g/ha (woolly cupgrass; 125 g ai/ha, scale 0-100): 60%
- pest or weed control at 250 g/ha (woolly cupgrass; [6]): 60%
- Cupgrass, Woolly plant response rating (woolly cupgrass; 500 g ai/ha): 80
- Plant response rating (0 = no effect, 100 = complete control), Goosegrass (goosegrass; 62 g ai/ha): 90
- pest or weed control at 125 g/ha (goosegrass; 125 g ai/ha, scale 0-100): 95%
- pest or weed control at 250 g/ha (goosegrass; [6]): 95%
- Goosegrass plant response rating (goosegrass; 500 g ai/ha): 100
- Rice plant response rating (rice; 500 g ai/ha): 90
- pest or weed control at 1000 g/ha (barnyardgrass): 90%
- Plant response rating (0 = no effect, 100 = complete control), Ragweed (common ragweed; 62 g ai/ha): 80
- pest or weed control at 250 g/ha (common ragweed; [7]): 100%
- Ragweed plant response rating (common ragweed; 500 g ai/ha): 100
- pest or weed control at 62 g/ha [1, 8]: 75%
- pest or weed control at 125 g/ha [1, 9]: 75%
- pest or weed control at 250 g/ha [1, 10]: 85%
- pest or weed control at 500 g/ha [1, 10]: 95%
- pest or weed control at 125 g/ha (cocklebur; post-emergence, Postemergence, 125 g ai/ha, scale 0 (no effect) to 100 (complete control), read-out: Cocklebur plant response rating): 50%
- pest or weed control at 500 g/ha (cocklebur; [11]): 80%
- pest or weed control at 500 g/ha (cocklebur; [12]): 90%

Compound: CCn1nc(C(C)(C)C)cc1C(=O)Nc1cccc2c1CN(C)C2=O [Compound 55, N-(2,3-dihydro-2-methyl-1-oxo-1H-isoindol-4-yl)-3-(1,1-dimethylethyl)-1-ethyl-1H-pyrazole-5-carboxamide]
- Plant response rating (0 = no effect, 100 = complete control), Nutsedge, Yellow (yellow nutsedge; 62 g ai/ha): 0
- pest or weed control at 125 g/ha (yellow nutsedge; Cyperus, pre-emergence, 125 g ai/ha, scale 0 (no effect) to 100 (complete control), visual, 12 to 14 days, read-out: Plant response rating, Nutsedge, Yellow): 0%
- pest or weed control at 250 g/ha (yellow nutsedge; [2]): 0%
- Nutsedge, Yellow plant response rating (yellow nutsedge; Preemergence, 500 g ai/ha, scale 0 to 100, 0 no effect, 100 complete control): 10
- pest or weed control at 2000 g/ha (velvetleaf; [3]): 40%
- pest or weed control at 500 g/ha (velvetleaf; [4]): 20%
- pest or weed control at 2000 g/ha (velvetleaf; [5]): 70%
- Plant response rating (0 = no effect, 100 = complete control), Cupgrass, Woolly (woolly cupgrass; 62 g ai/ha): 0
- pest or weed control at 125 g/ha (woolly cupgrass; [13]): 25%
- pest or weed control at 250 g/ha (woolly cupgrass; [6]): 55%
- Cupgrass, Woolly plant response rating (woolly cupgrass; 500 g ai/ha): 65
- Plant response rating (0 = no effect, 100 = complete control), Goosegrass (goosegrass; 62 g ai/ha): 0
- pest or weed control at 125 g/ha (goosegrass; [13]): 50%
- pest or weed control at 250 g/ha (goosegrass; [6]): 75%
- Goosegrass plant response rating (goosegrass; 500 g ai/ha): 95
- plant injury at 125 g/ha (rice; Oryza sativa, pre-emergence, 336 h, preemergence, 125 g ai/ha, 0 to 100 scale, 0 is no effect, 100 is complete control, read-out: Plant response rating, Rice): 50%
- Rice plant response rating (rice; 500 g ai/ha): 70
- pest or weed control at 1000 g/ha (barnyardgrass): 90%
- Plant response rating (0 = no effect, 100 = complete control), Ragweed (common ragweed; 62 g ai/ha): 0
- pest or weed control at 125 g/ha (common ragweed; Ambrosia artemisiifolia, pre-emergence, 125 g ai/ha, scale 0 (no effect) to 100 (complete control), visual, 12 to 14 days, read-out: Plant response rating, Ragweed): 0%
- pest or weed control at 250 g/ha (common ragweed; [7]): 0%
- Ragweed plant response rating (common ragweed; 500 g ai/ha): 80
- pest or weed control at 62 g/ha [1, 8]: 0%
- pest or weed control at 125 g/ha [1, 9]: 20%
- pest or weed control at 250 g/ha [1, 9]: 75%
- pest or weed control at 500 g/ha [1, 10]: 80%
- pest or weed control at 500 g/ha (cocklebur; [11]): 40%
- pest or weed control at 125 g/ha (cocklebur; post-emergence, postemergence, 125 g ai/ha, visual rating, scale 0 (no effect) to 100 (complete control), read-out: Cocklebur plant response rating): 10%
- pest or weed control at 500 g/ha (cocklebur; [12]): 10%
- pest or weed control at 125 g/ha (cocklebur; pre-emergence, preemergence, 125 g ai/ha, 0 to 100 scale, 0 is no effect, 100 is complete control, read-out: Plant response rating, Cocklebur): 0%

Compound: CCNC(=O)c1cccc(NC(=O)c2sc(C(C)(C)C)nc2CC)n1 [Compound 213]
- Plant response rating, Nutsedge, Yellow (yellow nutsedge; 62 g ai/ha, scale 0 to 100): 0
- Plant response rating, Nutsedge, Yellow (yellow nutsedge; [13]): 0
- Plant response rating, Nutsedge, Yellow (yellow nutsedge; 250 g ai/ha, scale 0-100): 0
- Plant response rating, Nutsedge, Yellow (yellow nutsedge; [14]): 0
- Velvetleaf plant response rating (velvetleaf; Postemergence, 500 g ai/ha, 0 to 100 scale, 0 no effect, 100 complete control): 30
- Plant response rating, Velvetleaf (velvetleaf; Postemergence, 2000 g ai/ha, 0 to 100 scale, 0 no effect, 100 complete control): 25
- Velvetleaf plant response rating (velvetleaf; Preemergence, 2000 g ai/ha, visual rating, 0 to 100 scale (0 no effect, 100 complete control)): 35
- Velvetleaf plant response rating (velvetleaf; preemergence, 500 g ai/ha, visual injury, 0 to 100 scale (0 no effect, 100 complete control)): 15
- Plant response rating, Cupgrass, Woolly (woolly cupgrass; 62 g ai/ha, scale 0 to 100): 0
- Plant response rating, Cupgrass, Woolly (woolly cupgrass; [13]): 0
- Plant response rating, Cupgrass, Woolly (woolly cupgrass; 250 g ai/ha, scale 0-100): 0
- Plant response rating, Cupgrass, Woolly (woolly cupgrass; [14]): 30
- Plant response rating, Goosegrass (goosegrass; 62 g ai/ha, scale 0 to 100): 0
- Plant response rating, Goosegrass (goosegrass; [13]): 60
- Plant response rating, Goosegrass (goosegrass; 250 g ai/ha, scale 0-100): 80
- Plant response rating, Goosegrass (goosegrass; [14]): 90
- Rice plant response rating (0 to 100 scale) (rice; [15]): 0
- Plant response rating, Rice (rice; [16]): 40
- Barnyardgrass plant response rating (barnyardgrass): 60
- Plant response rating, Ragweed (common ragweed; 62 g ai/ha, scale 0 to 100): 0
- Plant response rating, Ragweed (common ragweed; [13]): 0
- Plant response rating, Ragweed (common ragweed; 250 g ai/ha, scale 0-100): 0
- Plant response rating, Ragweed (common ragweed; [14]): 0
- Cocklebur plant response rating (0 to 100 scale) (cocklebur; [15]): 0
- Plant response rating, Cocklebur (cocklebur; [16]): 0
- Cocklebur plant response rating (cocklebur; postemergence, 125 g ai/ha, visual rating, scale 0 (no effect) to 100 (complete control)): 0
- Cocklebur plant response rating (cocklebur; postemergence, 500 g ai/ha, visual rating, scale 0 (no effect) to 100 (complete control)): 70
